Data as given in patent US9814761B2, “Compositions, methods and assays comprising amylin or amlyin analogs for abeta-peptide mediated disorders” (TRUSTEES OF BOSTON UNIVERSITY, priority 2012, dated 2017).

Target: T1, IDE (insulin degrading enzyme) (Mus musculus, UniProt Q9JHR7)
T1 construct: endogenous in cells; host or cells: Tg2576 (APP transgenic) mice, whole animal, i.p. dosing
T1 sequence (Q9JHR7 1-1019): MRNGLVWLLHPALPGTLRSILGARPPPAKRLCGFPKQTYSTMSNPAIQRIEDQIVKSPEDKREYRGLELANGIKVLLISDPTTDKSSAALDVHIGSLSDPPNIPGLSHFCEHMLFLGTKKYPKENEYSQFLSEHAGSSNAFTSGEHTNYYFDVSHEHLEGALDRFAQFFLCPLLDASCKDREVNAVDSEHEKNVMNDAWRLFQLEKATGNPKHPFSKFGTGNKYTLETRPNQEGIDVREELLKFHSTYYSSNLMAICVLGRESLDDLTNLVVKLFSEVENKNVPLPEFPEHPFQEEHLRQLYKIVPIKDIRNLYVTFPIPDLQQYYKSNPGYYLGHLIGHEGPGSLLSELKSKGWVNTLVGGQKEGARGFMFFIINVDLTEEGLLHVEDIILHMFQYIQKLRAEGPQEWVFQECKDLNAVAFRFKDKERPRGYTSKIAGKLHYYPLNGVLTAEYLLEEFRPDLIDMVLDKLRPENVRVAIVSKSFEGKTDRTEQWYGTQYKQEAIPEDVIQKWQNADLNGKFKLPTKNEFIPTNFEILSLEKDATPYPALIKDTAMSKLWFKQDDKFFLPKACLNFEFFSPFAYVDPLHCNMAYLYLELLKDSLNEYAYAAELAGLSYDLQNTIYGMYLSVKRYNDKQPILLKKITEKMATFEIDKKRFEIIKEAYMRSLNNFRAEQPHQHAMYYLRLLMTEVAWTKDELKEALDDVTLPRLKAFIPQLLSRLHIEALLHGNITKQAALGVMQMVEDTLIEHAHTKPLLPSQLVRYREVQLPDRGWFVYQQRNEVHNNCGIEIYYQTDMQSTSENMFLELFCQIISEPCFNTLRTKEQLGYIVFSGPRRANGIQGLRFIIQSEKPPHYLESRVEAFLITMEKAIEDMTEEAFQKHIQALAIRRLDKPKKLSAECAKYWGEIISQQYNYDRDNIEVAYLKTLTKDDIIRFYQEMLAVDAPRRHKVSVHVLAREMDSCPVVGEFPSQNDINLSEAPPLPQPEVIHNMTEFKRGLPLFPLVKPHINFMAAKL
Assay: pre-treatment with IDE inhibitor followed by amylin challenge, serum Aβ
Assay type: in vivo
Conditions: Tg2576 mice pre-treated with 1-10 phenonthrolin, then amylin challenge
Protocol: Tg2576 mice were used for the amylin challenge test. The mice received blood draws before any treatment. Then the mice had intraperitoneally injection (i.p) of PBS, AC253 (amylin receptor antagonist) or 1,10-phenonthrolin (IDE inhibitor) and received another blood draw 24 hrs post the treatment followed by i.p amylin (20 mg/kg). The final blood draw was conducted after 24 hrs post i.p amylin. Serum Aβ1-40 (5A) and Aβ1-42 (5B) were measured by using the ELISA assays. The levels of serum Aβ1-40 and Aβ1-42 at pre-injection of amylin were treated as 1 s, and the relative fold increases with different treatments were calculated and compared with the pre-injection level by using two-way ANOVA. P values for statistical significance are shown.
As amylin and Aβ are degraded by the same protease, IDE, we next pre-treated the Tg2576 mice with 1-10 phenonthrolin, a metalloprotease inhibitor to inhibit the activity of IDE, followed by the amylin challenge. It was next tested whether CTR/RAMP3 and IDE form a complex in this process to regulate Aβ in the brain. […] Another experiment with IDE immunoprecipitation and then RAMP3 western blot also illustrated the complex.

surges of serum Aβ at 24 hrs post the peripheral injection of amylin: completely blocked
Structure (SMILES): c1cnc2c(c1)ccc1cccnc12 [1-10 phenonthrolin, 1,10-phenonthrolin]
